Reference: PubChem BioAssay (NCI)
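Method: 48-hour compound exposure of cells in 96-well plates, five concentrations, linear interpolation of endpoints. GI50: concentration for 50% inhibition of growth. TGI is the concentration that stops growth completely.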

Assays:
Assay in all cases: growth of human tumour cells (NCI), 48 h
SF-295 CNS = tested on: SF-295 CNS
LOX IMVI melanoma = tested on: LOX IMVI melanoma
SK-MEL-28 melanoma = tested on: SK-MEL-28 melanoma
OVCAR-4 ovarian = tested on: OVCAR-4 ovarian
T-47D breast = tested on: T-47D breast
CCRF-CEM leukemia = tested on: CCRF-CEM leukemia
IGROV1 ovarian = tested on: IGROV1 ovarian
A549 NSCLC = tested on: A549 NSCLC
PC-3 prostate = tested on: PC-3 prostate
HCT-15 colon = tested on: HCT-15 colon
NCI-H460 lung = tested on: NCI-H460 lung
RPMI-8226 leukemia = tested on: RPMI-8226 leukemia
SR leukemia = tested on: SR leukemia

## CCCCCCCCP(=O)(O)OP(=O)(O)OCC1OC(n2ccc(N)nc2=O)C(O)C1O (centres undefined)
SF-295 CNS
  TGI: > 100 µM
LOX IMVI melanoma
  TGI: > 100 µM
SK-MEL-28 melanoma
  TGI: > 100 µM
OVCAR-4 ovarian
  TGI: > 100 µM
T-47D breast
  TGI: > 100 µM
CCRF-CEM leukemia
  TGI: > 100 µM
IGROV1 ovarian
  TGI: > 100 µM
A549 NSCLC
  TGI: > 100 µM
PC-3 prostate
  TGI: > 100 µM
HCT-15 colon
  TGI: > 100 µM
NCI-H460 lung
  TGI: > 100 µM
RPMI-8226 leukemia
  TGI: > 100 µM

## O=C1CC(=O)NC(=NN2C(=O)CSC2C(=O)c2ccco2)N1 (centres undefined)
SF-295 CNS
  TGI: > 100 µM
SK-MEL-28 melanoma
  TGI: > 100 µM
OVCAR-4 ovarian
  TGI: > 100 µM
SR leukemia
  TGI: > 100 µM
T-47D breast
  TGI: > 100 µM
CCRF-CEM leukemia
  TGI: > 100 µM
IGROV1 ovarian
  TGI: > 100 µM
A549 NSCLC
  TGI: > 100 µM
PC-3 prostate
  TGI: > 100 µM
HCT-15 colon
  TGI: > 100 µM
NCI-H460 lung
  TGI: > 100 µM
RPMI-8226 leukemia
  TGI: > 100 µM

## Cc1cc(S(=O)(=O)Nc2nncn2-c2ccc(Cl)cc2)c(S)cc1Cl
SF-295 CNS
  TGI: > 10 µM
LOX IMVI melanoma
  TGI: > 10 µM
SK-MEL-28 melanoma
  TGI: > 10 µM
OVCAR-4 ovarian
  TGI: > 10 µM
T-47D breast
  TGI: > 10 µM
CCRF-CEM leukemia
  TGI: > 10 µM
IGROV1 ovarian
  TGI: > 10 µM
A549 NSCLC
  TGI: > 10 µM
PC-3 prostate
  TGI: > 10 µM
HCT-15 colon
  TGI: > 10 µM
NCI-H460 lung
  TGI: > 10 µM
RPMI-8226 leukemia
  TGI: > 10 µM

## NCCCNOCCCN
SF-295 CNS
  TGI: > 100 µM
SK-MEL-28 melanoma
  TGI: > 100 µM
OVCAR-4 ovarian
  TGI: > 100 µM
SR leukemia
  TGI: > 100 µM
T-47D breast
  TGI: > 100 µM
A549 NSCLC
  TGI: > 100 µM
PC-3 prostate
  TGI: > 100 µM
HCT-15 colon
  TGI: > 100 µM
NCI-H460 lung
  TGI: > 100 µM
RPMI-8226 leukemia
  TGI: > 100 µM

## COC(=O)c1c(C)cccc1C1CN=NC12Cc1cc(C)cc(C)c1C2=O (centres undefined)
SF-295 CNS
  TGI: > 100 µM
LOX IMVI melanoma
  TGI: 41.5 µM
SK-MEL-28 melanoma
  TGI: > 100 µM
OVCAR-4 ovarian
  TGI: > 100 µM
T-47D breast
  TGI: > 100 µM
CCRF-CEM leukemia
  TGI: 63.8 µM
IGROV1 ovarian
  TGI: > 100 µM
A549 NSCLC
  TGI: > 100 µM
PC-3 prostate
  TGI: > 100 µM
HCT-15 colon
  TGI: > 100 µM
NCI-H460 lung
  TGI: > 100 µM

## CCCCSC1=N/C(=C\c2ccc(N(C)C)cc2)C(=O)N1
SF-295 CNS
  TGI: > 100 µM
LOX IMVI melanoma
  TGI: > 100 µM
SK-MEL-28 melanoma
  TGI: > 100 µM
OVCAR-4 ovarian
  TGI: > 100 µM
T-47D breast
  TGI: 81.8 µM
CCRF-CEM leukemia
  TGI: > 100 µM
IGROV1 ovarian
  TGI: > 100 µM
A549 NSCLC
  TGI: 75.2 µM
PC-3 prostate
  TGI: 19.3 µM
HCT-15 colon
  TGI: > 100 µM
NCI-H460 lung
  TGI: 51.6 µM
RPMI-8226 leukemia
  TGI: 50.2 µM

## CCCCc1ccc(Nc2nc(Cl)c3ccn(C4CC(Oc5ccc(C)cc5)C(COc5ccc(C)cc5)O4)c3n2)cc1 (centres undefined)
SF-295 CNS
  TGI: > 46.4 µM
LOX IMVI melanoma
  TGI: > 46.4 µM
SK-MEL-28 melanoma
  TGI: > 100 µM
OVCAR-4 ovarian
  TGI: > 31.6 µM
T-47D breast
  TGI: > 46.4 µM
CCRF-CEM leukemia
  TGI: > 46.4 µM
IGROV1 ovarian
  TGI: 29.5 µM
A549 NSCLC
  TGI: > 46.4 µM
PC-3 prostate
  TGI: > 100 µM
HCT-15 colon
  TGI: > 46.4 µM
NCI-H460 lung
  TGI: > 31.6 µM
RPMI-8226 leukemia
  TGI: > 46.4 µM

## Cc1cc(Nc2ccc(NS(C)(=O)=O)cc2)c2c(ccc3nccc32)[nH]1
SF-295 CNS
  TGI: 60.5 µM
LOX IMVI melanoma
  TGI: 48.4 µM
SK-MEL-28 melanoma
  TGI: 33.4 µM
OVCAR-4 ovarian
  TGI: 30.6 µM
T-47D breast
  TGI: 19.5 µM
CCRF-CEM leukemia
  TGI: > 100 µM
IGROV1 ovarian
  TGI: 86.3 µM
A549 NSCLC
  TGI: > 100 µM
PC-3 prostate
  TGI: 39.7 µM
HCT-15 colon
  TGI: > 100 µM
NCI-H460 lung
  TGI: 46.5 µM
RPMI-8226 leukemia
  TGI: 40.7 µM

## COc1c(Br)cc2ccccc2c1-c1c(OC)c(Br)cc2ccccc12
SF-295 CNS
  TGI: > 100 µM
LOX IMVI melanoma
  TGI: > 100 µM
SK-MEL-28 melanoma
  TGI: > 100 µM
OVCAR-4 ovarian
  TGI: > 100 µM
T-47D breast
  TGI: > 100 µM
CCRF-CEM leukemia
  TGI: > 100 µM
IGROV1 ovarian
  TGI: > 100 µM
A549 NSCLC
  TGI: > 100 µM
PC-3 prostate
  TGI: > 100 µM
HCT-15 colon
  TGI: > 100 µM
NCI-H460 lung
  TGI: > 100 µM
RPMI-8226 leukemia
  TGI: > 100 µM

## O=c1[nH]nc(Nc2ccccc2)c2nnn(C3CCCCC3)c12
SF-295 CNS
  TGI: > 100 µM
LOX IMVI melanoma
  TGI: > 100 µM
SK-MEL-28 melanoma
  TGI: > 100 µM
OVCAR-4 ovarian
  TGI: > 100 µM
SR leukemia
  TGI: > 100 µM
CCRF-CEM leukemia
  TGI: > 100 µM
A549 NSCLC
  TGI: > 100 µM
PC-3 prostate
  TGI: > 100 µM
HCT-15 colon
  TGI: > 100 µM
NCI-H460 lung
  TGI: > 100 µM
RPMI-8226 leukemia
  TGI: > 100 µM

## C=CCN1/C(=C2\SC(=S)N(c3ccc(C)cc3)C2=O)Sc2c1ncn(C)c2=O
SF-295 CNS
  TGI: > 100 µM
LOX IMVI melanoma
  TGI: > 100 µM
OVCAR-4 ovarian
  TGI: > 100 µM
SR leukemia
  TGI: > 100 µM
CCRF-CEM leukemia
  TGI: > 100 µM
IGROV1 ovarian
  TGI: > 100 µM
A549 NSCLC
  TGI: > 100 µM
HCT-15 colon
  TGI: > 100 µM
NCI-H460 lung
  TGI: > 100 µM
RPMI-8226 leukemia
  TGI: > 100 µM

## COC(=O)[C@]1(c2cc3ccccc3[nH]2)CC2CN(C(=O)OCc3ccccc3)C1CC2=O (some centres undefined)
SF-295 CNS
  TGI: > 100 µM
LOX IMVI melanoma
  TGI: 66.6 µM
SK-MEL-28 melanoma
  TGI: > 100 µM
OVCAR-4 ovarian
  TGI: > 100 µM
T-47D breast
  TGI: 76.2 µM
CCRF-CEM leukemia
  TGI: > 100 µM
IGROV1 ovarian
  TGI: > 100 µM
A549 NSCLC
  TGI: 91.5 µM
PC-3 prostate
  TGI: 39 µM
HCT-15 colon
  TGI: > 100 µM
NCI-H460 lung
  TGI: 77.6 µM
RPMI-8226 leukemia
  TGI: 38.9 µM

## N#Cc1cc(Sc2ccc(N)c(C#N)c2)ccc1N
SF-295 CNS
  TGI: > 100 µM
LOX IMVI melanoma
  TGI: 51.7 µM
SK-MEL-28 melanoma
  TGI: > 100 µM
OVCAR-4 ovarian
  TGI: 98.8 µM
T-47D breast
  TGI: > 100 µM
CCRF-CEM leukemia
  TGI: 41.3 µM
IGROV1 ovarian
  TGI: > 100 µM
A549 NSCLC
  TGI: > 100 µM
PC-3 prostate
  TGI: > 100 µM
HCT-15 colon
  TGI: 38.9 µM
NCI-H460 lung
  TGI: 31.1 µM
RPMI-8226 leukemia
  TGI: 59.2 µM

## CCOC(=O)/C=C(\C(=O)OCC)n1cc(Cl)c(=O)n(CC(=O)OCC)c1=O
SF-295 CNS
  TGI: > 61.1 µM
LOX IMVI melanoma
  TGI: 11.2 µM
SK-MEL-28 melanoma
  TGI: 36.5 µM
OVCAR-4 ovarian
  TGI: 41.2 µM
T-47D breast
  TGI: 4.12 µM
CCRF-CEM leukemia
  GI50: 16.5 µM
  TGI: 36.1 µM
IGROV1 ovarian
  TGI: 25.9 µM
A549 NSCLC
  TGI: 45.8 µM
PC-3 prostate
  TGI: 27.8 µM
HCT-15 colon
  TGI: 13.4 µM
NCI-H460 lung
  TGI: 51.1 µM
RPMI-8226 leukemia
  TGI: 4.58 µM

## NC(=O)CC(N)C(=O)NC(Cc1ccccc1)C(=O)NC(Cc1ccccc1)NC(=O)C(Cc1c[nH]c2ccccc12)C(=O)O (centres undefined)
SF-295 CNS
  TGI: > 100 µM
LOX IMVI melanoma
  TGI: > 100 µM
SK-MEL-28 melanoma
  TGI: > 100 µM
OVCAR-4 ovarian
  TGI: > 100 µM
T-47D breast
  TGI: > 100 µM
CCRF-CEM leukemia
  TGI: > 100 µM
IGROV1 ovarian
  TGI: > 100 µM
A549 NSCLC
  TGI: > 100 µM
PC-3 prostate
  TGI: > 100 µM
HCT-15 colon
  TGI: > 100 µM
NCI-H460 lung
  TGI: > 100 µM
RPMI-8226 leukemia
  TGI: > 100 µM

## CC(=O)O[C@H]1C[C@@H](OC(C)=O)[C@@](C)(O)[C@@H]2[C@@H](OC(C)=O)[C@@]3(O)[C@H](/C=C(/CO)[C@H]4O[C@H]4[C@@H](OC(C)=O)[C@@]12C)OC(=O)[C@@H]3C
SF-295 CNS
  TGI: 16.8 µM
LOX IMVI melanoma
  TGI: > 25 µM
SK-MEL-28 melanoma
  TGI: > 25 µM
OVCAR-4 ovarian
  TGI: > 25 µM
T-47D breast
  TGI: > 25 µM
CCRF-CEM leukemia
  TGI: > 25 µM
IGROV1 ovarian
  TGI: > 25 µM
A549 NSCLC
  TGI: > 25 µM
PC-3 prostate
  TGI: > 25 µM
HCT-15 colon
  TGI: > 25 µM
NCI-H460 lung
  TGI: > 25 µM
RPMI-8226 leukemia
  TGI: > 25 µM

## Nn1c(=O)[nH]c2ncn(Cc3ccccc3)c2c1=O
SF-295 CNS
  TGI: > 100 µM
SK-MEL-28 melanoma
  TGI: > 100 µM
OVCAR-4 ovarian
  TGI: > 100 µM
SR leukemia
  TGI: > 100 µM
T-47D breast
  TGI: > 100 µM
CCRF-CEM leukemia
  TGI: > 100 µM
IGROV1 ovarian
  TGI: > 100 µM
A549 NSCLC
  TGI: > 100 µM
PC-3 prostate
  TGI: > 100 µM
HCT-15 colon
  TGI: > 100 µM
NCI-H460 lung
  TGI: > 100 µM

## CC1SC2(CCCCC2)N(NC(=O)CSc2nc3ccc(Cl)cc3c(=O)n2-c2ccccc2)C1=O (centres undefined)
SF-295 CNS
  TGI: 36.8 µM
LOX IMVI melanoma
  TGI: 37.4 µM
SK-MEL-28 melanoma
  TGI: 88.4 µM
OVCAR-4 ovarian
  TGI: > 100 µM
T-47D breast
  TGI: > 100 µM
CCRF-CEM leukemia
  TGI: > 100 µM
IGROV1 ovarian
  TGI: 39.4 µM
A549 NSCLC
  TGI: > 100 µM
PC-3 prostate
  TGI: 56.1 µM
HCT-15 colon
  TGI: 45.2 µM
NCI-H460 lung
  TGI: 42.7 µM
